Experimental data taken from publication PMC9653409, “Generative deep learning enables the discovery of a potent and selective RIPK1 inhibitor” (Nature Communications, 2022).
Where “and” joins values, the source holds several entries; their conditions need not be identical. Equal entries are not always repeated. Where two headings read alike, the source gives them in different places.

How the values were obtained:
HT29 cells = assay: Dual staining with CytoCalcein Violet 450 and 7-AAD after TSZ; type: cell-based; settings: for Dead cell ratio (%): TSZ 24 h, replicates 1-4
Description: The assay of dual staining with CytoCalcein Violet 450 and 7-AAD was performed in a 24-well cell culture plate. Cells were plated in each well and cultured at 37 °C overnight. […] Then use CytoCalcein Violet 450 and 7-AAD to double stain the HT29 cells and observe under the microscope. All images were acquired with an Eclipse Ci-L microscope (Nikon, Japan). The dead cells were measured with Image J software, and the data was analyzed with GraphPad software. The experiment was repeated three times.

[1] = Pharmacokinetics in Sprague-Dawley rats; type: in vivo; settings: for Plasma Concentraion / concentration at 0.083 h / concentration at 0.5 h / concentration at 1 h / concentration at 2 h / concentration at 4 h / concentration at 6 h / concentration at 8 h: animals 1-3; for concentration at 0.083 h / concentration at 0.5 h / concentration at 1 h / concentration at 2 h / concentration at 4 h / concentration at 6 h / concentration at 8 h: read-out: Plasma Concentraion; for MRT inf: read-out: MRT0-∞
Description: The PK properties of compounds were examined in male Sprague-Dawley rats (n = 3 per group, weight: 180–220 g). Compounds were dissolved in saline with 5% (v/v) DMSO plus 40% (v/v) PEG400. The animals were administered with a single dose of 5 mg/kg (intravenous injection (i.v.)), 20 mg/kg (intraperitoneal injection (i.p.) or oral gavage (p.o.)). Blood samples were collected at 0.083, 0.25, 0.5, 1, 2, 4, 6, 8, 10 and 24 h, and centrifuged to isolate plasma. Subsequently, the plasma compound concentrations were determined by LC-MS/MS-13 (TQ5500, SCIEX), and the PK parameters were calculated using Phoenix WinNonlin 7.0.

TNFα-induced SIRS = TNFα-induced SIRS mouse model: H&E histology of organs; type: in vivo, C57BL/6 female mice; settings: 40 mg/kg i.p.
Description: The body temperatures of the mice were continuously monitored until 6 h after TNFα administration. At 6 h after TNFα injection, four mice in each group were killed at random, and the serums, heart, liver, spleen, lung, and kidney tissues were collected for analysis. Mice mortality was continuously monitored until 72 h after TNFα administration.
The heart, liver, spleen, lung, kidney and colon tissues were fixed directly in 4% paraformaldehyde (24 h), embedded in paraffin, and stained with H&E following standard procedures. All images were acquired using a Pannoramic MIDI scanner.

DSS-induced IBD = DSS-induced IBD mouse model: colon H&E and S100a9 immunohistochemistry; type: in vivo, C57BL/6 female mice; settings: 40 mg/kg i.p., day 7
Description: The heart, liver, spleen, lung, kidney and colon tissues were fixed directly in 4% paraformaldehyde (24 h), embedded in paraffin, and stained with H&E following standard procedures. All images were acquired using a Pannoramic MIDI scanner. The colon tissues were fixed in 4% paraformaldehyde for 24 h. The tissues were sliced to a thickness of […], deparaffinized with xylene, and rehydrated with graded ethanol. The tissue sections were then placed in a repair box filled with citric acid (pH 6.0) antigen retrieval buffer for antigen retrieval in a microwave oven followed by the quenching of endogenous peroxidase activity in 3% hydrogen peroxide. The sections were incubated overnight at 4 °C with primary antibody (S100a9, 73425, CST), which was prepared in PBS (pH 7.4) according to the manufacturer’s instructions. The sections were then washed three times with PBS, incubated for 1 h with the appropriate secondary antibodies, and staining with freshly prepared DAB color developing solution. Subsequently, the sections were counterstained with hematoxylin and mounted in non-aqueous mounting medium. All images were acquired using a Pannoramic MIDI scanner.

[2] = system: kinases that have an inhibitory rate larger than 50%; assay: IC50 against kinases with inhibitory rate larger than 50%; type: biochemical, human; settings: all except MLK3; read-out: IC50 against all other kinases followed up
Description: In vitro kinase activity assays were conducted through the Kinase Profiling Services provided by Eurofins (Eurofins, France). The protocol for the RIPK1 assay is briefly described as follows (Protocols for other kinases are very similar and can be found in http://www.eurofins.com/pharmadiscovery). RIPK1 kinase was incubated with the test compound in assay buffer containing 8 mM MOPS (pH 7.0), 0.2 mM EDTA, 250 μM […], 10 mM magnesium acetate, and 10 μM [γ-33P]-ATP for 15 min at room temperature. The reaction was initiated by the addition of the Mg/ATP mixture. After incubation for 40 min at room temperature, and the reaction was stopped by the addition of 3% phosphoric acid. A 10 μL portion of the reaction mixture was then spotted onto a P30 filter mat and washed four times for 4 min in 0.425% phosphoric acid and once in methanol prior to drying and scintillation counting.

[3] = male, Sprague-Dawley, rat, plasma, ip, 20 mg/kg
[4] = male, Sprague-Dawley, rat, plasma, iv, 5 mg/kg
[5] = male, Sprague-Dawley, rat, plasma, po, 20 mg/kg

SMILES: CC(C)C(=O)Nc1nc2cc(-c3ccc4c(c3)c(C(=O)NC(C)c3ccccc3)cn4C)ccn2n1 (centres unmarked) [RI-962]
- Dead cell ratio (%) (HT29 cells; 3 nM): 15.55% and 9.32% and 10.06% and 11.13%
- Dead cell ratio (%) (HT29 cells; 10 nM, listed as RI-963): 9.02% and 6.38% and 5.61% and 6.01%
- TSZ-induced necroptosis, dual staining (HT29 cells; HT29, 24 h): inhibited TSZ-induced necroptosis and improved cell survival in a concentration-dependent manner
- Plasma Concentraion ([1]; Supplementary Figure 7 panel a, 0.083 h): 11.1812 µg/mL and 13.5032 µg/mL
- Plasma Concentraion ([1]; Supplementary Figure 7 panel a, 0.5 h): 2.0227 µg/mL and 2.49356 µg/mL
- Plasma Concentraion ([1]; Supplementary Figure 7 panel a, 1 h): 0.324429 µg/mL and 0.36825 µg/mL
- Plasma Concentraion ([1]; Supplementary Figure 7 panel a, 2 h): 0.0531161 µg/mL and 0.0498208 µg/mL
- Plasma Concentraion ([1]; Supplementary Figure 7 panel a, 4 h): 0.020793 µg/mL and 0.012876 µg/mL
- Plasma Concentraion ([1]; Supplementary Figure 7 panel a, 6 h): 0.0121272 µg/mL and 0.007691 µg/mL
- Plasma Concentraion ([1]; Supplementary Figure 7 panel a, 8 h): 0.005677 µg/mL and 0.003748 µg/mL
- Plasma Concentraion ([1]; Supplementary Figure 7 panel b, 0.083 h): 0.127196 µg/mL and 0.183609 µg/mL
- Plasma Concentraion ([1]; Supplementary Figure 7 panel b, 0.5 h): 0.350948 µg/mL and 0.617101 µg/mL
- Plasma Concentraion ([1]; Supplementary Figure 7 panel b, 6 h): 0.0117068 µg/mL and 0.0135938 µg/mL
- Plasma Concentraion ([1]; Supplementary Figure 7 panel b, 8 h): 0.008501 µg/mL and 0.0053 µg/mL
- Plasma Concentraion ([1]; Supplementary Figure 7 panel c, 0.083 h): 0.84169 µg/mL and 1.2246 µg/mL
- Plasma Concentraion ([1]; Supplementary Figure 7 panel c, 0.5 h): 4.1493 µg/mL and 2.8232 µg/mL
- Plasma Concentraion ([1]; Supplementary Figure 7 panel c, 1 h): 3.6801 µg/mL and 2.363 µg/mL
- Plasma Concentraion ([1]; Supplementary Figure 7 panel c, 2 h): 0.63578 µg/mL and 0.70171 µg/mL
- Plasma Concentraion ([1]; Supplementary Figure 7 panel c, 4 h): 0.2267 µg/mL and 0.11563 µg/mL
- concentration at 0.083 h ([1]; male, Sprague-Dawley, rat, plasma, intraperitoneal, 20 mg/kg, Supplementary Figure 7 panel c, 0.083 h): 1.01 µg/mL
- concentration at 0.5 h ([1]; male, Sprague-Dawley, rat, plasma, intraperitoneal, 20 mg/kg, Supplementary Figure 7 panel c, 0.5 h): 3.84 µg/mL
- concentration at 1 h ([1]; male, Sprague-Dawley, rat, plasma, intraperitoneal, 20 mg/kg, Supplementary Figure 7 panel c, 1 h): 3.08 µg/mL
- concentration at 2 h ([1]; male, Sprague-Dawley, rat, plasma, intraperitoneal, 20 mg/kg, Supplementary Figure 7 panel c, 2 h): 0.737 µg/mL
- concentration at 4 h ([1]; male, Sprague-Dawley, rat, plasma, intraperitoneal, 20 mg/kg, Supplementary Figure 7 panel c, 4 h): 0.229 µg/mL
- concentration at 0.083 h ([1]; male, Sprague-Dawley, rat, plasma, intravenous, 5 mg/kg, Supplementary Figure 7 panel a, 0.083 h): 11.8 µg/mL
- concentration at 0.5 h ([1]; male, Sprague-Dawley, rat, plasma, intravenous, 5 mg/kg, Supplementary Figure 7 panel a, 0.5 h): 1.61 µg/mL
- concentration at 1 h ([1]; male, Sprague-Dawley, rat, plasma, intravenous, 5 mg/kg, Supplementary Figure 7 panel a, 1 h): 0.291 µg/mL
- concentration at 2 h ([1]; male, Sprague-Dawley, rat, plasma, intravenous, 5 mg/kg, Supplementary Figure 7 panel a, 2 h): 0.0596 µg/mL
- concentration at 4 h ([1]; male, Sprague-Dawley, rat, plasma, intravenous, 5 mg/kg, Supplementary Figure 7 panel a, 4 h): 0.0206 µg/mL
- concentration at 6 h ([1]; male, Sprague-Dawley, rat, plasma, intravenous, 5 mg/kg, Supplementary Figure 7 panel a, 6 h): 0.0116 µg/mL
- concentration at 8 h ([1]; male, Sprague-Dawley, rat, plasma, intravenous, 5 mg/kg, Supplementary Figure 7 panel a, 8 h): 0.0064 µg/mL
- AUC(0-inf) [1, 3]: 6.61 ± 1.12 µg·h/mL
- AUC(0-t) [1, 3]: 6.46 µg·h/mL
- Cmax [1, 3]: 3.6 ± 0.693 µg/mL
- Tmax [1, 3]: 0.5 h
- bioavailability [1, 3]: 35.7 ± 6.3%
- half-life [1, 3]: 8.5 ± 1.6 h
- MRT inf [1, 3]: 2.8 ± 0.1 h
- AUC(0-inf) [1, 4]: 4.54 ± 0.546 µg·h/mL
- AUC(0-t) [1, 4]: 4.53 µg·h/mL
- Cmax [1, 4]: 12.2 ± 1.2 µg/mL
- Tmax [1, 4]: 0.1 h
- clearance [1, 4]: 1.11 ± 0.126 L/h/kg
- half-life [1, 4]: 2.1 ± 0.2 h
- MRT inf [1, 4]: 0.4 h
- Vd ([1]; male, Sprague-Dawley, rat, plasma, iv, 5 mg/kg, read-out: Vss): 0.4 ± 0.1 L/kg
- concentration at 0.083 h ([1]; male, Sprague-Dawley, rat, plasma, oral, 20 mg/kg, Supplementary Figure 7 panel b, 0.083 h): 0.113 µg/mL
- concentration at 0.5 h ([1]; male, Sprague-Dawley, rat, plasma, oral, 20 mg/kg, Supplementary Figure 7 panel b, 0.5 h): 0.418 µg/mL
- concentration at 6 h ([1]; male, Sprague-Dawley, rat, plasma, oral, 20 mg/kg, Supplementary Figure 7 panel b, 6 h): 0.0113 µg/mL
- concentration at 8 h ([1]; male, Sprague-Dawley, rat, plasma, oral, 20 mg/kg, Supplementary Figure 7 panel b, 8 h): 0.00791 µg/mL
- AUC(0-inf) [1, 5]: 1.6 ± 0.896 µg·h/mL
- AUC(0-t) [1, 5]: 1.59 µg·h/mL
- Cmax [1, 5]: 0.674 ± 0.425 µg/mL
- Tmax [1, 5]: 0.8 ± 1 h
- half-life [1, 5]: 1.3 ± 0.2 h
- MRT inf [1, 5]: 1.8 ± 0.2 h
- AUC0–t ([1]; p.o., 20 mg/kg): 1.5949 ± 0.8918 µg·h/mL
- F (%) ([1]; p.o., 20 mg/kg): 8.8 ± 5.0%
- damage to the liver and kidney (H&E) (TNFα-induced SIRS): attenuated damage to the liver and kidney
- infiltration by S100a9-positive cells (DSS-induced IBD): no infiltration by S100a9-positive cells was observed
- tissue damage in the colons (histopathology) (DSS-induced IBD): substantially decreased tissue damage
- IC50 [2]: > 10 µM
